Assays:
Test in all cases: relative viability (nuclei count vs DMSO), 5 days (fraction); higher = more cells survive
Carfilzomib + Olaparib = compound: CC(C)C[C@H](NC(=O)[C@H](CCc1ccccc1)NC(=O)CN1CCOCC1)C(=O)N[C@@H](Cc1ccccc1)C(=O)N[C@@H](CC(C)C)C(=O)[C@@]1(C)CO1 [Carfilzomib] + O=C(c1cc(Cc2n[nH]c(=O)c3ccccc23)ccc1F)N1CCN(C(=O)C2CC2)CC1 [Olaparib] (partner 8 µM)
Procedure, shortened: (§1)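 Relative viability is defined as nuclei in treated wells over nuclei in vehicle wells. Duplicate plates were run and medians reported. Lung cancer cell lines in 1536-well plates were dosed by pin tool one day after seeding, with one drug or with a fixed anchor-drug dose plus five library-drug doses (not always all listed) in √10 steps, and nuclei were counted after 5 days.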

Carfilzomib + Crizotinib = compound: CC(C)C[C@H](NC(=O)[C@H](CCc1ccccc1)NC(=O)CN1CCOCC1)C(=O)N[C@@H](Cc1ccccc1)C(=O)N[C@@H](CC(C)C)C(=O)[C@@]1(C)CO1 [Carfilzomib] + C[C@@H](Oc1cc(-c2cnn(C3CCNCC3)c2)cnc1N)c1c(Cl)ccc(F)c1Cl [Crizotinib] (partner 1 µM)
Procedure, shortened: as §1

Olaparib + Bortezomib = compound: O=C(c1cc(Cc2n[nH]c(=O)c3ccccc23)ccc1F)N1CCN(C(=O)C2CC2)CC1 [Olaparib] + CC(C)C[C@H](NC(=O)[C@H](Cc1ccccc1)NC(=O)c1cnccn1)B(O)O [Bortezomib] (partner 0.002 µM)
Procedure, shortened: as §1

Olaparib + Dasatinib = compound: O=C(c1cc(Cc2n[nH]c(=O)c3ccccc23)ccc1F)N1CCN(C(=O)C2CC2)CC1 [Olaparib] + Cc1nc(Nc2ncc(C(=O)Nc3c(C)cccc3Cl)s2)cc(N2CCN(CCO)CC2)n1 [Dasatinib] (partner 0.075 µM)
Procedure, shortened: as §1

Cell Line | relative viability (Carfilzomib + Olaparib; first compound 0.001 µM) | relative viability (Carfilzomib + Olaparib; first compound 0.003162 µM) | relative viability (Carfilzomib + Olaparib; first compound 0.01 µM) | relative viability (Carfilzomib + Olaparib; first compound 0.03162 µM) | relative viability (Carfilzomib + Olaparib; first compound 0.1 µM) | relative viability (Carfilzomib + Crizotinib; first compound 0.001 µM) | relative viability (Carfilzomib + Crizotinib; first compound 0.003162 µM) | relative viability (Carfilzomib + Crizotinib; first compound 0.01 µM) | relative viability (Carfilzomib + Crizotinib; first compound 0.03162 µM) | relative viability (Carfilzomib + Crizotinib; first compound 0.1 µM) | relative viability (Olaparib + Bortezomib; first compound 0.253 µM) | relative viability (Olaparib + Bortezomib; first compound 2.53 µM) | relative viability (Olaparib + Bortezomib; first compound 8 µM) | relative viability (Olaparib + Dasatinib; first compound 0.08 µM) | relative viability (Olaparib + Dasatinib; first compound 0.253 µM) | relative viability (Olaparib + Dasatinib; first compound 2.53 µM) | relative viability (Olaparib + Dasatinib; first compound 8 µM) | relative viability (Olaparib + Bortezomib; first compound 0.08 µM)
NCI-H441 | 0.749 | 0.542 | 0.288 | 0.146 | 0.15 | 0.7 | 1.15 | 0.362 | 0.1 | 0.127 | 0.175 | 0.489 | 0.382 | 0.818 | 0.542 | 0.651 | 0.589 | 
ABC-1 | 0.768 | 0.846 | 0.348 | 0.324 | 0.26 | 1.15 | 0.805 | 0.385 | 0.177 | 0.172 | 0.332 | 0.323 | 0.33 | 0.639 | 0.609 | 0.586 | 0.676 | 0.308
NCI-H2170 | 0.6 | 0.674 | 0.588 | 0.218 | 0.117 | 1.1 | 1.32 | 1.33 | 0.528 | 0.2 |  |  |  | 0.471 | 0.629 | 0.47 | 0.638 | 
NCI-H1944 | 0.438 | 0.513 | 0.441 | 0.374 | 0.187 | 1.02 | 1.2 | 1.09 | 1.07 | 0.302 |  |  |  | 0.177 | 0.215 | 0.178 | 0.149 | 
PC-3 [JPC-3] | 1.17 | 1.16 | 1.18 | 0.652 | 0.301 | 1.01 | 0.99 | 0.985 | 0.828 | 0.376 | 0.692 | 0.852 | 0.846 | 1.08 | 0.902 | 1.01 | 0.895 | 0.991
NCI-H1648 | 1.07 | 0.563 | 0.745 | 0.922 | 0.189 |  |  |  |  |  |  |  |  |  |  |  |  | 
NCI-H1975 | 0.828 | 0.825 | 0.393 | 0.123 | 0.118 | 0.944 | 0.951 | 0.536 | 0.116 | 0.131 | 0.364 | 0.403 | 0.319 | 0.396 | 0.346 | 0.381 | 0.364 | 0.424
NCI-H1623 |  |  |  |  |  |  |  |  |  |  |  |  |  | 0.568 | 0.504 | 0.6 | 0.494 | 
IA-LM | 1.06 | 0.779 | 0.738 | 0.0714 | 0.0425 | 0.956 | 0.796 | 0.502 | 0.0235 | 0.0632 | 0.739 | 0.745 | 0.659 |  |  |  |  | 0.743
NCI-H1703 | 0.44 | 0.493 | 0.124 | 0.1 | 0.129 | 0.579 | 0.73 | 0.168 | 0.0733 | 0.0878 | 0.301 | 0.445 | 0.417 |  |  |  |  | 0.367
NCI-H358 | 0.639 | 0.692 | 0.583 | 0.0792 | 0.0776 | 0.712 | 0.802 | 0.525 | 0.104 | 0.144 |  |  |  | 0.152 | 0.181 | 0.167 | 0.146 | 
LK-2 | 0.646 | 0.661 | 0.86 | 0.149 | 0.149 |  | 0.237 | 0.16 | 0.262 | 0.209 |  |  |  | 0.27 | 0.329 | 0.271 | 0.225 | 
Calu-6 | 0.52 | 0.628 | 0.504 | 0.0906 | 0.0789 | 0.747 | 0.834 | 0.811 | 0.334 | 0.0815 | 0.959 | 0.796 | 0.777 |  |  |  |  | 1.13
SK-MES-1 | 0.709 | 0.847 | 0.775 | 0.276 | 0.146 | 1.04 | 1.05 | 1.09 | 0.752 | 0.169 |  |  |  | 0.41 | 0.323 | 0.431 | 0.228 | 
NCI-H2342 | 0.424 | 0.541 | 0.499 | 0.497 | 0.317 |  |  |  |  |  |  |  |  | 0.293 | 0.262 | 0.312 | 0.293 | 
A549 | 0.344 | 0.301 | 0.405 | 0.0248 | 0.0273 | 0.802 | 0.776 | 0.743 | 0.182 | 0.0494 |  |  |  |  |  |  |  | 
EBC-1 | 0.721 | 0.63 | 0.191 | 0.0599 | 0.082 | 0.212 | 0.18 | 0.183 | 0.131 | 0.111 | 0.541 | 0.523 | 0.472 |  |  |  |  | 0.654
NCI-H1395 |  | 0.516 | 0.428 | 0.356 | 0.303 |  |  |  |  |  |  |  |  | 0.465 | 0.358 | 0.39 | 0.419 | 
NCI-H1299 | 0.964 | 0.998 | 0.933 | 0.191 | 0.116 | 1.01 | 0.966 | 0.981 | 0.472 | 0.178 | 0.97 | 1.04 | 0.968 |  |  |  |  | 1.07
NCI-H522 | 0.586 | 0.778 | 0.694 | 0.489 | 0.314 |  |  |  |  |  |  |  |  | 0.913 | 0.884 | 0.846 | 0.782 | 
SW 900 |  | 0.756 | 0.323 | 0.174 | 0.168 |  |  |  |  |  |  |  |  | 0.57 | 0.815 | 0.624 | 0.615 | 
NCI-H1563 |  |  |  |  |  | 0.939 | 0.902 | 0.897 | 0.711 | 0.397 | 0.881 | 0.896 | 0.692 | 0.485 | 0.516 | 0.465 | 0.42 | 0.876
HCC-44 | 1.07 | 0.975 | 0.985 | 1.03 | 0.637 | 0.811 | 0.824 | 0.866 | 0.614 | 0.149 | 0.873 | 0.952 | 0.893 |  |  |  |  | 0.915
